Measured values from patent publication USRE47193E1, “Selectively substituted quinoline compounds” (EISAI R&D MANAGEMENT CO., LTD., priority 2013, dated 2019).
Like-named read-outs stand apart in the source and are kept apart here.

Tested on: Human TLR7/8
Experiment: Human PBMC cell-based assay, TLR7/8 stimulus (RNA-Ig), cytokine ELISA
How it was run: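 Healthy-donor human PBMC, 2×10^5 cells/well (1×10^5 in later assay), pre-treated 30 min with compound (0.1% DMSO). Stimulated 20 h at 37 °C with RNA-Ig: 26-mer U1 snRNA stem loop IV phosphorothioate RNA at 2.5 μM plus anti-ssDNA antibody (1:25 or 1 ug/ml). Supernatant cytokines by ELISA.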

[1] = primary human PBMC assay, TLR7/8 potency, ligand not given, read-out: Human PBMCs IC50

| Structure (SMILES) | IC50 [1] | other results |
| --- | --- | --- |
| C[C@@H]1CN(c2ccc(C#N)c3ncccc23)C[C@H](C)O1 [ER-878952] | 151 nM | – |
| C[C@@H]1CN(c2ccc(C#N)c3ncccc23)C[C@H](CO)O1 [ER-885493, 5-((2R,6R)-2-(hydroxymethyl)-6-methylmorpholino)quinoline-8-carbonitrile] | 180 nM | – |
| C[C@@H]1CN(c2ccc(C#N)c3ncccc23)C[C@H](CN2CC[C@H](O)C2)O1 [ER-886820] | 62 nM | – |
| C[C@@H]1CN(c2ccc(C#N)c3ncccc23)C[C@H](CN2CCC(O)CC2)O1 [ER-886953] | 26 nM | – |
| C[C@@H]1CN(c2ccc(C#N)c3ncccc23)C[C@H](CNC2CCCC2)O1 [ER-887145] | 15 nM | – |
| C[C@@H]1CN(c2ccc(C#N)c3ncccc23)C[C@H](CN2CCNCC2)O1 [ER-887253] | 1 nM | – |
| C[C@@H]1CN(C[C@H]2CN(c3ccc(C#N)c4ncccc34)C[C@@H](C)O2)CCN1 [ER-887269] | 1 nM | – |
| CC1CNC(=O)CN1C[C@H]1CN(c2ccc(C#N)c3ncccc23)C[C@@H](C)O1 (some centres unmarked) [ER-887722] | 65 nM | – |
| C[C@@H]1CN(c2ccc(C#N)c3ncccc23)C[C@H](CN2CCN(C)CC2)O1 [ER-887723] | 7 nM | – |
| CCCN1CCN(C[C@H]2CN(c3ccc(C#N)c4ncccc34)C[C@@H](C)O2)CC1 [ER-887724] | 6 nM | – |
| CC1CN(c2ccc(C#N)c3ncccc23)CC(CN2CCC(N(C)C)CC2)O1 (centres unmarked) [ER-887725] | 2 nM | – |
| CC(=O)NC1CCN(CC2CN(c3ccc(C#N)c4ncccc34)CC(C)O2)CC1 (centres unmarked) [ER-888288] | 15 nM | – |
| CC1CN(c2ccc(C#N)c3ncccc23)CC(CN2CCN(C)CC2C)O1 (centres unmarked) [ER-889556] | 10 nM | – |
| CC1CN(c2ccc(C#N)c3ncccc23)CC(CN2CCC(NC(=O)C(C)C)CC2)O1 (centres unmarked) [ER-889745] | 46 nM | – |
| CC[C@H]1CN(C[C@H]2CN(c3ccc(C#N)c4ncccc34)C[C@@H](C)O2)CCN1 [ER-890963] | 2 nM | – |
| C[C@@H]1CN(c2ccc(C#N)c3ncccc23)C[C@H](C(=O)NC2CCN(C)CC2)O1 [ER-899464, (2R,6R)-4-(8-cyanoquinolin-5-yl)-6-methyl-N-(1-methylpiperidin-4-yl)morpholine-2-carboxamide] | 1 nM | – |
| C[C@@H]1CN(c2ccc(C#N)c3ncccc23)C[C@H](C(=O)N[C@H]2CNC[C@H]2F)O1.Cl [ER-899742, (2R,6R)-4-(8-cyanoquinolin-5-yl)-N-[(3S,4R)-4-fluoropyrrolidin-3-yl]-6-methylmorpholine-2-carboxamide hydrochloride] | – | IC50 (Hu PBMC, ligand RNA-Ig, analyte IL-6): 0.9 nM; fold more potent versus HCQ (RNA-Ig TLR7/8 stimulus): approximately 1000 fold; IC50 (read-out: Human PBMCs IC50, primary human PBMC assay, TLR7/8 potency, ligand not given): 1 nM |
| CCN(CCO)CCCC(C)Nc1ccnc2cc(Cl)ccc12 (centres unmarked) [HCQ, hydroxychloroquine, reference compound] | – | IC50 (Hu PBMC, ligand RNA-Ig, analyte IL-6, read-out: IC50): 1000 to 2000 nM |
